According to the NIST ThermoML archive (doi:10.1021/acs.jced.8b00403):

Test: wn = mass fraction of the nth substance listed
Conditions: 101.33 kPa, Liquid; for viscosity: Concentric cylinders viscometry; for mass density: Vibrating tube method

CC(O)CO (stereo unspecified) [1,2-propanediol] + O
Conditions	mass density [kg/m3]	viscosity [mPa·s]
253.15 K, w1 = 0.5005	1062.5	84.94
253.15 K, w1 = 0.672	1070.8	204.36
253.15 K, w1 = 0.8044	1071.6	415.71
253.15 K, w1 = 0.9481	1068.2	1067
253.15 K, w1 = 1	1065.8	1772.4
258.15 K, w1 = 0.3312	1041.7	21.95
258.15 K, w1 = 0.5005	1059.8	55.34
258.15 K, w1 = 0.672	1067.6	128.54
258.15 K, w1 = 0.8044	1068.1	256.2
258.15 K, w1 = 0.9481	1064.7	638.89
258.15 K, w1 = 1	1062.2	1038.3
263.15 K, w1 = 0.3312	1040	15.59
263.15 K, w1 = 0.5005	1056.9	37.52
263.15 K, w1 = 0.672	1064.3	84.22
263.15 K, w1 = 0.8044	1064.5	164.62
263.15 K, w1 = 0.9481	1061	396.61
263.15 K, w1 = 1	1058.6	631.08
268.15 K, w1 = 0.198	1021.7	5.78
268.15 K, w1 = 0.3312	1038.15	11.45
268.15 K, w1 = 0.5005	1054	26.37
268.15 K, w1 = 0.672	1060.9	57.22
268.15 K, w1 = 0.8044	1061.1	109.37
268.15 K, w1 = 0.9481	1057.4	254.76
268.15 K, w1 = 1	1054.9	396.99
273.15 K, w1 = 0.0988	1009.8	2.877
273.15 K, w1 = 0.198	1020.8	4.552
273.15 K, w1 = 0.3312	1036.3	8.655
273.15 K, w1 = 0.5005	1051.1	19.12
273.15 K, w1 = 0.672	1057.5	40.16
273.15 K, w1 = 0.8044	1057.6	75.05
273.15 K, w1 = 0.9481	1053.8	169.13
273.15 K, w1 = 1	1051.3	258
283.15 K, w1 = 0.0988	1008.2	1.991
283.15 K, w1 = 0.198	1017.8	3.017
283.15 K, w1 = 0.3312	1031.2	5.306
283.15 K, w1 = 0.5005	1044.6	10.83
283.15 K, w1 = 0.672	1050.5	21.24
283.15 K, w1 = 0.8044	1050.4	38.42
283.15 K, w1 = 0.9481	1045.6	86.69
283.15 K, w1 = 1	1042.9	116.68
293.15 K, w1 = 0.0988	1005.7	1.454
293.15 K, w1 = 0.198	1014.5	2.171
293.15 K, w1 = 0.3312	1026.3	3.536
293.15 K, w1 = 0.5005	1038.1	6.741
293.15 K, w1 = 0.672	1043.2	12.58
293.15 K, w1 = 0.8044	1042.9	21.75
293.15 K, w1 = 0.9481	1038.2	45.66
293.15 K, w1 = 1	1035.5	59.75
